Data reported in patent US10611740B2, “Aryl dihydro-2H-benzo[b][1,4]oxazine sulfonamide and related compounds for use as agonists of RORγ and the treatment of disease” (Lycera Corporation, priority 2015, dated 2020).

Tests used:
[1] = target: T1, Gal4-RORγ-LBD (Homo sapiens, UniProt P51449); assay: Gal4-RORγ Luciferase Reporter Assay in HEK-293T Cells; type: cell-based; conditions: HEK-293 cells
T1 construct: expressed in transfected cells; host or cells: HEK-293 cells (pcDNA3.1neo plasmid)
T1 sequence (P51449 269-508 limits assumed): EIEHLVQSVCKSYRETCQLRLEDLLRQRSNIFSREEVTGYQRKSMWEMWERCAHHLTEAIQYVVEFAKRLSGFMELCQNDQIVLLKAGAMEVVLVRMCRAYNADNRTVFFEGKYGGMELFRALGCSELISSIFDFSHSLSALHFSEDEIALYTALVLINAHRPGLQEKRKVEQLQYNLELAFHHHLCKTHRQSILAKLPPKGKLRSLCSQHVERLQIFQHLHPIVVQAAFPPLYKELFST
In short: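 In transfected HEK-293 cells (Gal4-RORγ-LBD, Gal4-luciferase), test agents with 2 μM ursolic acid were incubated overnight at 37 °C before luminescent detection. Values are relative to the ursolic-acid-free, compound-free signal (100).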

[2] = target: T2, RORγ-LBD (Homo sapiens, UniProt P51449); assay: RORγ-Ligand Binding Domain (LBD) TR-FRET Assay; type: biochemical;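 for TR-FRET Assay Max Response: 665/615 nm ratio relative to signal without ursolic acid or compound set at 100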
T2 construct: made in house; host or cells: SF9 cells (baculovirus)
T2 sequence (P51449 269-508 limits assumed): T1 sequence (P51449 269-508 limits assumed)
In short: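 SF9 lysate containing His-RORγ-LBD, ~3 nM final; coactivator peptide biotin-SRC1 LXXLL, 200 nM final; ursolic acid 2 μM final; DMSO 1% final; Tris pH 7.0 buffer with KCl, EDTA, DTT, BSA. TR-FRET format.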

[3] = luciferase reporter, with 2 μM ursolic acid

| SMILES | EC50 [1, 3] | Gal4-RORγ Assay Max Response [1, 3] | EC50 [2] | TR-FRET Assay Max Response [2] | EC50 ([1]; 2 μM ursolic acid) | Gal4-RORγ Assay Max Response ([1]; 2 μM ursolic acid) |
| --- | --- | --- | --- | --- | --- | --- |
| C[C@@](O)(CC[C@H]1CN(S(=O)(=O)c2cccc(C(F)(F)F)c2)c2cc(-c3cc(F)ccc3F)ccc2O1)C(=O)O [Compound 40, (R)-4-((S)-6-(2,5-difluorophenyl)-4-((3-(trifluoromethyl)phenyl)sulfonyl)-3,4-dihydro-2H-benzo[b][1,4]oxazin-2-yl)-2-hydroxy-2-methylbutanoic acid] | 500 to 5000 nM | ** (The symbol “**” indicates a value in the range of greater than 90 to 150) | < 500 nM | **** (The symbol “****” indicates a value greater than 200) |  |  |
| O=S(=O)(c1cccc(C(F)(F)F)c1)N1C[C@H]([C@H](O)CO)Oc2ccc(-c3cc(F)ccc3F)cc21 [Compound 41, (R)-1-((R)-6-(2,5-difluorophenyl)-4-((3-(trifluoromethyl)phenyl)sulfonyl)-3,4-dihydro-2H-benzo[b][1,4]oxazin-2-yl)ethane-1,2-diol] | < 500 nM | * (The symbol “*” indicates a value in the range of 25 to 90) | < 500 nM | **** (The symbol “****” indicates a value greater than 200) |  |  |
| CS(=O)(=O)NC(=O)CC[C@H]1CN(S(=O)(=O)c2cccc(C(F)(F)F)c2)c2cc(-c3cc(F)ccc3F)ccc2O1 [Compound 42, (S)-3-(6-(2,5-difluorophenyl)-4-((3-(trifluoromethyl)phenyl)sulfonyl)-3,4-dihydro-2H-benzo[b][1,4]oxazin-2-yl)-N-(methylsulfonyl)propanamide] | < 500 nM | ** (The symbol “**” indicates a value in the range of greater than 90 to 150) | < 500 nM | **** (The symbol “****” indicates a value greater than 200) |  |  |
| O=C(CC[C@H]1CN(S(=O)(=O)c2cccc(C(F)(F)F)c2)c2cc(-c3ccc(F)cc3F)ccc2O1)NS(=O)(=O)c1ccccc1 [Compound 43A, (S)-3-(6-(2,4-difluorophenyl)-4-((3-(trifluoromethyl)phenyl)-sulfonyl)-3,4-dihydro-2H-benzo[b][1,4]oxazin-2-yl)-N-(phenylsulfonyl)propanamide] | 500 to 5000 nM | *** (The symbol “***” indicates a value in the range of greater than 150 to 200) | < 500 nM | **** (The symbol “****” indicates a value greater than 200) |  |  |
| O=C(CC[C@H]1CN(S(=O)(=O)c2cccc(C(F)(F)F)c2)c2cc(-c3ccc(F)cc3F)ccc2O1)NS(=O)(=O)C1CC1 [Compound 43B, (S)-N-(cyclopropylsulfonyl)-3-(6-(2,4-difluorophenyl)-4-((3-(trifluoromethyl)phenyl)-sulfonyl)-3,4-dihydro-2H-benzo[b][1,4]oxazin-2-yl)propanamide] | 500 to 5000 nM | ** (The symbol “**” indicates a value in the range of greater than 90 to 150) | < 500 nM | **** (The symbol “****” indicates a value greater than 200) |  |  |
| CNS(=O)(=O)NC[C@H]1CN(S(=O)(=O)c2cccc(C(F)(F)F)c2)c2cc(-c3cc(F)ccc3F)ccc2O1 [Compound 44, ([[(2S)-6-(2,5-difluorophenyl)-4-[[3-(trifluoromethyl)benzene]sulfonyl]-3,4-dihydro-2H-1,4-benzoxazin-2-yl]methyl]sulfamoyl)(methyl)amine] | < 500 nM | ** (The symbol “**” indicates a value in the range of greater than 90 to 150) | < 500 nM | **** (The symbol “****” indicates a value greater than 200) |  |  |
| CN(C)S(=O)(=O)NC[C@H]1CN(S(=O)(=O)c2cccc(C(F)(F)F)c2)c2cc(-c3cc(F)ccc3F)ccc2O1 [Compound 45A, ([[(2S)-6-(2,5-difluorophenyl)-4-[[3-(trifluoromethyl)-benzene]-sulfonyl]-3,4-dihydro-2H-1,4-benzoxazin-2-yl]methyl]sulfamoyl)-(dimethyl)amine] | < 500 nM | ** (The symbol “**” indicates a value in the range of greater than 90 to 150) | < 500 nM | **** (The symbol “****” indicates a value greater than 200) |  |  |
| COc1cc(S(=O)(=O)N2C[C@H](CNS(=O)(=O)N(C)C)Oc3ccc(-c4cc(F)ccc4F)cc32)ccc1F [Compound 45C, ([[(2S)-6-(2,5-difluorophenyl)-4-[[4-fluoro-3-methoxy-benzene]-sulfonyl]-3,4-dihydro-2H-1,4-benzoxazin-2-yl]methyl]sulfamoyl)-(dimethyl)amine] | < 500 nM | * (The symbol “*” indicates a value in the range of 25 to 90) | < 500 nM | *** (The symbol “***” indicates a value in the range of greater than 150 to 200) |  |  |
| COc1cc(S(=O)(=O)N2C[C@H](CNS(=O)(=O)N(C)CCO)Oc3ccc(-c4cc(F)ccc4F)cc32)ccc1F [Compound 45D, ([[(2S)-6-(2,5-difluorophenyl)-4-[[4-fluoro-3-methoxy-benzene]-sulfonyl]-3,4-dihydro-2H-1,4-benzoxazin-2-yl]methyl]sulfamoyl)-(N-methyl-N-2-hydroxyethyl)-amine] |  |  | < 500 nM | *** (The symbol “***” indicates a value in the range of greater than 150 to 200) | < 500 nM | * (The symbol “*” indicates a value in the range of 25 to 90) |
| COc1cc(S(=O)(=O)N2C[C@H](CNS(=O)(=O)N3CC[C@H](O)C3)Oc3ccc(-c4cc(F)ccc4F)cc32)ccc1F [Compound 45E, (S)-N-(((S)-6-(2,5-difluoro-phenyl)-4-((4-fluoro-3-methoxyphenyl)sulfonyl)-3,4-dihydro-2H-benzo[b][1,4]oxazin-2-yl)methyl)-3-hydroxy-pyrrolidine-1-sulfonamide] |  |  | < 500 nM | *** (The symbol “***” indicates a value in the range of greater than 150 to 200) | < 500 nM | ** (The symbol “**” indicates a value in the range of greater than 90 to 150) |
| Cc1c(F)cc(-c2ccc3c(c2)N(S(=O)(=O)c2cccc(C(F)(F)F)c2)C[C@H](CC(C)C(=O)O)O3)c(Cl)c1F (stereo partly drawn) [Compound 46A, 3-((S)-6-(2-chloro-3,5-difluoro-4-methylphenyl)-4-((3-(trifluoro-methyl)phenyl)sulfonyl)-3,4-dihydro-2H-benzo[b][1,4]oxazin-2-yl)-2-methylpropanoic acid] | 500 to 5000 nM | ** (The symbol “**” indicates a value in the range of greater than 90 to 150) | < 500 nM | *** (The symbol “***” indicates a value in the range of greater than 150 to 200) |  |  |
| C[C@H](C[C@H]1CN(S(=O)(=O)c2cccc(C(F)(F)F)c2)c2cc(-c3cc(F)cc(F)c3Cl)ccc2O1)C(=O)O [Compound 46B, (R)-3-((S)-6-(2-chloro-3,5-difluorophenyl)-4-((3-(trifluoro-methyl)phenyl)sulfonyl)-3,4-dihydro-2H-benzo[b][1,4]oxazin-2-yl)-2-methylpropanoic acid] | < 500 nM | ** (The symbol “**” indicates a value in the range of greater than 90 to 150) | < 500 nM | *** (The symbol “***” indicates a value in the range of greater than 150 to 200) |  |  |
| C[C@@H](C[C@H]1CN(S(=O)(=O)c2cccc(C(F)(F)F)c2)c2cc(-c3cc(F)cc(F)c3Cl)ccc2O1)C(=O)O [Compound 46C, (S)-3-((S)-6-(2-chloro-3,5-difluorophenyl)-4-((3-(trifluoro-methyl)phenyl)sulfonyl)-3,4-dihydro-2H-benzo[b][1,4]oxazin-2-yl)-2-methylpropanoic acid] | < 500 nM | ** (The symbol “**” indicates a value in the range of greater than 90 to 150) | < 500 nM | *** (The symbol “***” indicates a value in the range of greater than 150 to 200) |  |  |
| C[C@H](C[C@H]1CN(S(=O)(=O)c2cccc(C(F)(F)F)c2)c2cc(-c3cccc(Cl)c3F)ccc2O1)C(=O)O [Compound 46D, (R)-3-((S)-6-(3-chloro-2-fluoro-phenyl)-4-((3-(trifluoromethyl)-phenyl)sulfonyl)-3,4-dihydro-2H-benzo[b][1,4]oxazin-2-yl)-2-methylpropanoic acid] |  |  | < 500 nM | *** (The symbol “***” indicates a value in the range of greater than 150 to 200) | < 500 nM | ** (The symbol “**” indicates a value in the range of greater than 90 to 150) |
| C[C@@H](C[C@H]1CN(S(=O)(=O)c2cccc(C(F)(F)F)c2)c2cc(-c3cccc(Cl)c3F)ccc2O1)C(=O)O [Compound 46E, (S)-3-((S)-6-(3-chloro-2-fluoro-phenyl)-4-((3-(trifluoromethyl)-phenyl)sulfonyl)-3,4-dihydro-2H-benzo[b][1,4]oxazin-2-yl)-2-methylpropanoic acid] |  |  | < 500 nM | ** (The symbol “**” indicates a value in the range of greater than 90 to 150) | 500 to 5000 nM | * (The symbol “*” indicates a value in the range of 25 to 90) |
